According to patent publication US20180153995A1, “USE OF ANTIMICROBIAL POLYMERS FOR RE-SENSITIZATION OF MICROORGANISMS UPON EMERGENCE OF RESISTANCE TO ANTI-MICROBIAL AGENTS” (Technion Research & Development Foundation Limited, priority 2008, published 2018):
Where two headings read alike, the source gives them in different places.

Columns and labels:
S. aureus 17314 = experiment: Antibiotic MIC by microdilution with or without sub-MIC polymer; format: cell-based, Staphylococcus aureus; conditions: S. aureus 17314
[1] = tested on: E. coli K-12 efflux knockout mutant; format: cell-based, Escherichia coli; conditions: E. coli AG100A (efflux−)
How it was run: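 Broth microdilution, inocula 10^5 bacteria/ml, 24 h at 37 °C. Growth read as OD620 against calibration standards.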

MRSA 15903 = experiment: microbe, parasite or virus in culture; format: cell-based, Staphylococcus aureus
How it was run: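 Two-agent combinations tested against MRSA 15903; FIC index = A/MICA + B/MICB, using MICs in combination versus alone. Below 0.5 read as clear re-sensitizing, 0.5–4 marginal or null, above 4 antagonism.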

S. aureus 15819 = experiment: Antibiotic MIC by microdilution with or without sub-MIC polymer; format: cell-based, Staphylococcus aureus; conditions: S. aureus 15819
E. coli 16329 = format: cell-based, Escherichia coli; conditions: E. coli U-16329
Method: MICs were determined by microdilution susceptibility testing in 96-well plates (by Nunc) using inocula of 10^5 bacteria per ml. Cell populations were evaluated by optical density measurements at 620 nm and were calibrated against a set of standards. Hundred (100) μl of a bacterial suspension were added to 100 μl of culture medium (control) or to 100 μl of culture medium containing various polymer concentrations in 2-fold serial dilutions. Inhibition of proliferation was determined by optical density measurements at 620 nm after an incubation period of 24 hours at 37° C.
100 μl of a bacterial suspension were added to 100 μl of culture medium (control) or to 100 μl of culture medium containing various antibiotic and C14(9-ene)KKNC12KNH2 (SEQ ID NO: 5) concentrations in 2-fold serial dilutions. Inhibition of proliferation was determined by optical density measurements at 620 nm after an incubation period of 24 hours at 37° C.

E. coli 14182 = experiment: Antibiotic MIC by microdilution with or without sub-MIC polymer; format: cell-based, Escherichia coli
[2] = tested on: E. coli K-12 resistant wild type; format: cell-based, Escherichia coli; conditions: E. coli AG100 (w.t.)
S. maltophila 748 = experiment: Antibiotic MIC by microdilution with or without sub-MIC polymer; format: cell-based, Stenotrophomonas maltophila
E. coli 16327 = experiment: microbe, parasite or virus in culture
[3] = polymer at ½ of its MIC (Table 16)
[4] = the OAK at ½ of its MIC (Table 17)
[5] = +¼ MIC (1.6 μM) C12K(KNC12K)3NH2
[6] = +⅓ MIC (2.1 μM) C12K(KNC12K)3NH2

CC[C@H]1OC(=O)[C@H](C)[C@@H](O[C@H]2C[C@@](C)(OC)[C@@H](O)[C@H](C)O2)[C@H](C)[C@@H](O[C@@H]2O[C@H](C)C[C@H](N(C)C)[C@H]2O)[C@](C)(O)C[C@@H](C)C(=O)[C@H](C)[C@@H](O)[C@]1(C)O [Erythromycin, erythromycin]
Antibiotic MIC (S. aureus 17314; +¼ MIC (1.6 μM) C12K(KNC12K)2NH2): 1 µg/mL
Antibiotic MIC (S. aureus 17314; +¼ MIC (1.6 μM) C12KKNC12KNH2): 1 µg/mL
Antibiotic MIC (S. aureus 17314; +¼ MIC (1.6 μM) C14(9-ene)KKNC12KNH2): 1 µg/mL
Antibiotic MIC (S. aureus 17314; +¼ MIC (1.6 μM) C16(9-ene)KKNC12KNH2): 1 µg/mL
Antibiotic MIC (S. aureus 17314; +½ MIC (3.12 μM) C12K(KNC12K)2NH2): 0.5 to 1 µg/mL
Antibiotic MIC (S. aureus 17314; +½ MIC (3.12 μM) C12KKNC12KNH2): 1 µg/mL
Antibiotic MIC (S. aureus 17314; +½ MIC (3.12 μM) C14(9-ene)KKNC12KNH2): 1 µg/mL
Antibiotic MIC (S. aureus 17314; +½ MIC (3.12 μM) C16(9-ene)KKNC12KNH2): 0.5 µg/mL
Antibiotic MIC (S. aureus 17314; +⅓ MIC (2.1 μM) C12K(KNC12K)2NH2): 0.5 to 1 µg/mL
Antibiotic MIC (S. aureus 17314; +⅓ MIC (2.1 μM) C12KKNC12KNH2): 1 µg/mL
Antibiotic MIC (S. aureus 17314; +⅓ MIC (2.1 μM) C14(9-ene)KKNC12KNH2): 1 µg/mL
Antibiotic MIC (S. aureus 17314; +⅓ MIC (2.1 μM) C16(9-ene)KKNC12KNH2): 1 µg/mL
Antibiotic MIC (S. aureus 17314; no polymer (None), Table 9): 1 µg/mL
Antibiotic MIC (S. aureus 17314; no polymer (None), Table 10): 1 µg/mL
Antibiotic MIC (S. aureus 17314; no polymer (None), Table 11): 1 µg/mL
Antibiotic MIC (S. aureus 17314; no polymer (None), Table 12): 1 µg/mL
Antibiotic MIC, None ([1]; antibiotic alone (Table 16)): 4 to 8 µg/mL
Antibiotic MIC, None ([1]; antibiotic alone (Table 17)): 4 to 8 µg/mL
Antibiotic MIC in presence of C12K(NC8K)7NH2 (SEQ ID NO: 4), +¼ MIC ([1]; polymer at ¼ of its MIC (Table 16)): 4 to 8 µg/mL
Antibiotic MIC in presence of C12K(NC8K)7NH2 (SEQ ID NO: 4), +½ MIC [1, 3]: 2 µg/mL
Antibiotic MIC in presence of C12K(NC8K)7NH2 (SEQ ID NO: 4), +⅓ MIC ([1]; polymer at ⅓ of its MIC (Table 16)): 2 to 4 µg/mL
Antibiotic MIC in presence of the OAK, +¼ MIC ([1]; the OAK at ¼ of its MIC (Table 17)): 4 to 8 µg/mL
Antibiotic MIC in presence of the OAK, +½ MIC [1, 4]: 1 to 2 µg/mL
Antibiotic MIC in presence of the OAK, +⅓ MIC ([1]; the OAK at ⅓ of its MIC (Table 17)): 4 µg/mL
MIC (MRSA 15903; MRSA 15903, +¼ polymer MIC (1.6 μM) NC12(KNC12K)2NH2): 1 µg/mL
MIC (MRSA 15903; MRSA 15903, +½ polymer MIC (3.1 μM) NC12(KNC12K)2NH2): 0.016 µg/mL
MIC, ½ + MIC OAK (MRSA 15903; MRSA 15903, with C12K(KNC10K)3NH2 (SEQ ID NO: 10) at ½ of its MIC): 0.13 to 0.25 µg/mL
MIC, ⅓ + MIC OAK (MRSA 15903; MRSA 15903, with C12K(KNC10K)3NH2 (SEQ ID NO: 10) at ⅓ of its MIC): 0.5 µg/mL
MIC (MRSA 15903; S. aureus CI-15903, +polymer (¼ MIC) C12(5-ene)KKNC12KNH2): 0.5 µg/mL
MIC (MRSA 15903; S. aureus CI-15903, +polymer (½ MIC) C12(5-ene)KKNC12KNH2): 0.1 µg/mL
MIC (MRSA 15903; S. aureus CI-15903, +polymer (⅓ MIC) C12(5-ene)KKNC12KNH2): 0.1 µg/mL
MIC (MRSA 15903; Staphylococcus aureus, MRSA, 24 h, MRSA 15903, antibiotic alone (Table 22), read-out: MIC, Alone): 1 µg/mL
MIC (MRSA 15903; Staphylococcus aureus, MRSA, 24 h, MRSA 15903, antibiotic alone, read-out: MIC): 0.5 µg/mL
MIC (MRSA 15903; Staphylococcus aureus, MRSA, 24 h, S. aureus CI-15903, alone, read-out: MIC): 0.5 µg/mL
Antibiotic MIC (S. aureus 15819; +¼ MIC (1.6 μM) C12(5-ene)KKNC12KNH2): 0.25 µg/mL
Antibiotic MIC (S. aureus 15819; [5]): 0.5 µg/mL
Antibiotic MIC (S. aureus 15819; +¼ MIC (1.6 μM) C12KKNC12KNH2): 0.5 µg/mL
Antibiotic MIC (S. aureus 15819; +½ MIC (3.12 μM) C12(5-ene)KKNC12KNH2): 0.25 µg/mL
Antibiotic MIC (S. aureus 15819; +½ MIC (3.12 μM) C12KKNC12KNH2): 0.5 µg/mL
Antibiotic MIC (S. aureus 15819; +⅓ MIC (2.1 μM) C12(5-ene)KKNC12KNH2): 0.25 µg/mL
Antibiotic MIC (S. aureus 15819; [6]): 0.25 µg/mL
Antibiotic MIC (S. aureus 15819; +⅓ MIC (2.1 μM) C12KKNC12KNH2): 0.5 µg/mL
Antibiotic MIC (S. aureus 15819; no polymer (None), Table 8): 0.25 µg/mL
Antibiotic MIC (S. aureus 15819; no polymer (None), Table 11): 0.5 µg/mL
Antibiotic MIC (S. aureus 15819; no polymer (None), Table 13): 0.5 µg/mL
Antibiotic MIC (E. coli 16329; +½ MIC C12K(NC8K)5NH2): 32 µg/mL
Antibiotic MIC in presence of C12K(NC8K)7NH2 (SEQ ID NO: 4), +½ MIC (E. coli 16329; polymer at ½ of its MIC): 16 µg/mL
Antibiotic MIC (E. coli 14182; +½ MIC C12K(NC8K)5NH2): 8 to 16 µg/mL
Antibiotic MIC (E. coli 14182; +⅓ MIC C12K(NC8K)5NH2): 32 to 64 µg/mL
Antibiotic MIC in presence of C12K(NC8K)7NH2 (SEQ ID NO: 4), +¼ MIC (E. coli 14182; polymer at ¼ of its MIC): 32 µg/mL
Antibiotic MIC in presence of C12K(NC8K)7NH2 (SEQ ID NO: 4), +½ MIC (E. coli 14182; polymer at ½ of its MIC): 8 µg/mL
Antibiotic MIC in presence of C12K(NC8K)7NH2 (SEQ ID NO: 4), +⅓ MIC (E. coli 14182; polymer at ⅓ of its MIC): 16 µg/mL
Antibiotic MIC in presence of C12K(NC8K)7NH2 (SEQ ID NO: 4), +½ MIC [2, 3]: 8 to 16 µg/mL
Antibiotic MIC in presence of the OAK, +½ MIC [2, 4]: 16 µg/mL
Antibiotic MIC (S. maltophila 748; [5]): 512 µg/mL
Antibiotic MIC (S. maltophila 748; [6]): 512 µg/mL
Antibiotic MIC (S. maltophila 748; no polymer (None), Table 13): 512 µg/mL
MIC, ½ + MIC OAK (E. coli 16327; E. coli U16327, with C12K(KNC10K)3NH2 (SEQ ID NO: 10) at ½ of its MIC): 4 to 8 µg/mL
MIC, ⅓ + MIC OAK (E. coli 16327; E. coli U16327, with C12K(KNC10K)3NH2 (SEQ ID NO: 10) at ⅓ of its MIC): 8 µg/mL
Antibiotic MIC in presence of C12K(NC8K)7NH2 (SEQ ID NO: 4), +½ MIC (E. coli 16327; E. coli U-16327, polymer at ½ of its MIC): 32 µg/mL
